These results are taken from patent publication US4330553A, “7-Oxo-PGI2 -derivatives and process for the preparation thereof and pharmaceutical compositions containing same” (Chinoin Gyogyszer es Vegyeszeti Termekek Gyara R.T., priority 1979, dated 1982).

In series [1] the test system is thrombocytes. As to the kind of experiment: Thrombocyte aggregation inhibiting activity in human plasma enriched with thrombocytes (aggregation induced with ADP or collagen). In kind it is cell-based. The source says: ID50 concentrations in case of aggregation generated with ADP and collagen resp. in plasma enriched with thrombocytes (PRB) isolated from human blood are as disclosed hereinbelow. As a comparison ID50 concentration values obtained with PGI2 sodium salt under the same test conditions are given.

The conditions of series [2]: acidic or neutral medium; decomposes to 6-keto-PGF1α; cited from earlier work.
[3] abbreviates: aggregation induced with ADP, read-out: ID50, thrombocyte aggregation inhibiting activity, ADP.
[4] abbreviates: aggregation induced with collagen, read-out: ID50, thrombocyte aggregation inhibiting activity, collagen.

≈ marks a conversion by molar mass, not a printed value. Counter-ions that a name gives are not always drawn. Like-named read-outs stand apart in the source and are kept apart here.

In the case of `CCCCC[C@H](O)/C=C/[C@@H]1[C@H]2C(=O)/C(=C/CCCC(=O)OC)O[C@H]2C[C@H]1O` [7-Oxo-PGI2-methyl ester, 7-Oxo-PGI2-methylester], the IC50 is 0.1 to 0.2 µg/mL (≈ 0.263 to 0.526 µM) in series [1] (setting [3]) and 0.05 µg/mL (≈ 0.131 µM) in series [1] (setting [4]).

On to `CCCCC[C@H](O)/C=C/[C@@H]1[C@H]2C/C(=C/CCCC(=O)O)O[C@H]2C[C@H]1O` [PGI2], for which the “stability of PGI2” value in series [2] is recorded as “immediately decomposes”. For `CCCCC[C@H](O)/C=C/[C@@H]1[C@H]2C(=O)/C(=C/CCCC(=O)O)O[C@H]2C[C@H]1O` [Sodium salt of 7-oxo-PGI2], the IC50 in series [1] (setting [3]) was 0.015 µg/mL; in series [1] (setting [4]) it was 0.08 µg/mL. For `CCCCC[C@H](O)/C=C/[C@@H]1[C@H]2C/C(=C/CCCC(=O)O)O[C@H]2C[C@H]1O` [Sodium salt of PGI2, reference compound] the same measures were 0.001 to 0.002 µg/mL and 0.001 to 0.002 µg/mL.
